The values below come from US10611756B2, “Method of treating pancreatitis using 1,4-benzoxazine derivatives” (GLAXOSMITHKLINE INTELLECTUAL PROPERTY DEVELOPMENT LIMITED, priority 2015, dated 2020).

Broadly, the pIC50 is −log10 of the IC50, conventionally taken in molar units. The low end stands for a high IC50, the high end for a low IC50.

pIC50: −log10 of the molar value. “And” between values parts separate entries of the source, which are not always exact repeats. Equal entries are not always repeated.

In the assay the target is human KMO (Homo sapiens, UniProt O15229). The experiment in a line: KMO MS Rapidfire assay (RapidFire High-Throughput Mass Spectrometry, Method 1 or Method 2). Conditions: median pIC50, in at least one of the MS Rapidfire assays (Method 1 or 2); isolated human KMO-membranes, 10 μM Kynurenine, 200 μM NADPH; values exemplary only.
Sequence of human KMO (O15229 whole entry): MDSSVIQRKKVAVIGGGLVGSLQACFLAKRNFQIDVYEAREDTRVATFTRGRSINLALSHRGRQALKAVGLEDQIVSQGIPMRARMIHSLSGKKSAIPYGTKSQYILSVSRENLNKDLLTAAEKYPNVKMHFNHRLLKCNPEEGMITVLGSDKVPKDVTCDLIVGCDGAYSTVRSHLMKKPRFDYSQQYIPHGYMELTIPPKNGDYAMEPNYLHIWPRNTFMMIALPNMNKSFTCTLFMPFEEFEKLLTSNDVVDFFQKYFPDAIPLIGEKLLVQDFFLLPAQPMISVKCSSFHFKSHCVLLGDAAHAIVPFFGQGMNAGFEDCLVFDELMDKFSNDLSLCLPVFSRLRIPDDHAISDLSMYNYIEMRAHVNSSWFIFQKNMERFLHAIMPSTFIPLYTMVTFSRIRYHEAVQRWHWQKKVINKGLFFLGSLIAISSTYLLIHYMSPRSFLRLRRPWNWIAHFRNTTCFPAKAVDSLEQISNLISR
Method: KMO inhibition can be determined by MS Rapidfire assay performed on the human cloned enzyme as described herein.
100 nL DMSO was dispensed into columns 6 and 18 for high and low controls, respectively, with prior inactivation of the enzyme in column 18 by pre-dispense of 30 μL of 0.5% (v/v) TFA.
Conditions for the assay of human KMO using isolated KMO-membranes were 50 mM HEPES, pH 7.5, 2 mM DTT, 1 mM EDTA, 100 μM CHAPS, 200 μM NADPH, 10 μM Kynurenine and 8 μg/ml KMO-membranes in a total reaction volume of 10 μL.
Assays were performed by initially dispensing 5 μL of a 2× Enzyme solution (16 μg/ml KMO-membranes in 50 mM HEPES, pH 7.5, 2 mM DTT, 2 mM EDTA, 200 μM CHAPS) into plates containing 100 nL compounds and incubating for 10 min at ambient temperature. […] All additions were made using a Multidrop Combi dispenser (Thermo Fisher Scientific).
Quenched assay plates were transferred to a high-throughput RapidFire200 integrated autosampler/solid-phase extraction (SPE) system (Agilent Technologies, Wakefield, Mass.). Samples were aspirated from each well for 500 ms and 10 μL was loaded directly onto a RapidFire micro-scale SPE C18 (type C) cartridge, which was washed for 3 s with HPLC-grade water containing 0.1% (v/v) formic acid to remove non-organic components. Analytes were then eluted into the mass spectrometer, in a 3 s elution cycle, using 80% (v/v) acetonitrile/water containing 0.1% (v/v) formic acid, and the cartridge was then equilibrated by washing with water containing 0.1% (v/v) formic acid for 500 ms. This gave a total cycle time of 7 s, enabling analysis of a 384-well plate in approximately 45 min.
Both Kyn and 3-HK were detected using a Sciex AP14000 triple quadrupole mass spectrometer (Applied Biosystems, Concord, Ontario, Canada), equipped with an electrospray interface and operated in positive ion mode. […] The mass spectrometer used an ESI voltage of 5500 V and a source temperature of 600° C., with a dwell time of 50 ms for each transition.
Using the integrated peak area for 3-HK data was analysed within ActivityBase (ID Business Solutions Ltd, Surrey, UK). Dose response curves were fitted to equation (1):
100 nL DMSO was dispensed into columns 6 and 18 for high and low controls, respectively, with prior inactivation of the enzyme in column 18 by pre-dispense of 50 μL of 0.5% (v/v) TFA.
As to `Cc1ncc(C(C)Oc2cc3c(cc2Cl)N(CCC(=O)O)C(=O)CO3)o1` (racemic) [Example 3, 2-amino-2-(hydroxymethyl)propane-1,3-diol; 3-{6-chloro-7-[1-(2-methyl-1,3-oxazol-5-yl)ethoxy]-3-oxo-3,4-dihydro-2H-1,4-benzoxazin-4-yl}propanoic acid], the pIC50 was no less than 7.50.

For the compound `CC(Oc1cc2c(cc1Cl)N(CCC(=O)O)C(=O)CO2)c1ncc[nH]1` (racemic) [Example 6, 2-amino-2-(hydroxymethyl)propane-1,3-diol; 3-{6-chloro-7-[1-(1H-imidazol-2-yl)ethoxy]-3-oxo-3,4-dihydro-2H-1,4-benzoxazin-4-yl}propanoic acid], the pIC50 was no less than 7.50. With `CC(Oc1cc2c(cc1Cl)N(CCC(=O)O)C(=O)CO2)c1ncco1` (single isomer, unassigned) [Example 4, 2-amino-2-(hydroxymethyl)propane-1,3-diol; 3-{6-chloro-7-[1-(1,3-oxazol-2-yl)ethoxy]-3-oxo-3,4-dihydro-2H-1,4-benzoxazin-4-yl}propanoic acid] the figure was no less than 7.50.

Take `CC(Oc1cc2c(cc1Cl)N(CCC(=O)O)C(=O)CO2)c1ncccn1` (single isomer, unassigned) [Example 7, 2-amino-2-(hydroxymethyl)propane-1,3-diol; 3-{6-chloro-3-oxo-7-[1-(pyrimidin-2-yl)ethoxy]-3,4-dihydro-2H-1,4-benzoxazin-4-yl}propanoic acid]: the negative logarithm of the IC50 (pIC50) is no less than 7.50. With `CCC(Oc1cc2c(cc1Cl)N(CCC(=O)O)C(=O)CO2)c1ncccn1` (single isomer, unassigned) [Example 21, 3-{6-chloro-3-oxo-7-[1-(pyrimidin-2-yl)propoxy]-3,4-dihydro-2H-1,4-benzoxazin-4-yl}propanoic acid] the figure was no less than 7.50. With `CCC(Oc1cc2c(cc1Cl)N(CCC(=O)O)C(=O)CO2)c1ncc(C)cn1` (single isomer, unassigned) [Example 23, 3-{6-chloro-7-[1-(5-methylpyrimidin-2-yl)propoxy]-3-oxo-3,4-dihydro-2H-1,4-benzoxazin-4-yl}propanoic acid] the figure was no less than 7.50. With `CCC(Oc1cc2c(cc1Cl)N(CCC(=O)O)C(=O)CO2)c1ncc(Cl)cn1` (single isomer, unassigned) [Example 26, 3-{6-chloro-7-[1-(5-chloropyrimidin-2-yl)propoxy]-3-oxo-3,4-dihydro-2H-1,4-benzoxazin-4-yl}propanoic acid] the figure was no less than 7.50; with `CCC(Oc1cc2c(cc1Cl)N(CCC(=O)O)C(=O)CO2)c1cccnn1` (single isomer, unassigned) [Example 28, 3-{6-chloro-3-oxo-7-[1-(pyridazin-3-yl)propoxy]-3,4-dihydro-2H-1,4-benzoxazin-4-yl}propanoic acid], no less than 7.50; with `CCC(Oc1cc2c(cc1Cl)N(CCC(=O)O)C(=O)CO2)c1ccc(C)nn1` (single isomer, unassigned) [Example 29, 3-{6-chloro-7-[1-(6-methylpyridazin-3-yl)propoxy]-3-oxo-3,4-dihydro-2H-1,4-benzoxazin-4-yl}propanoic acid], no less than 7.50. Turning to `CC[C@@H](Oc1cc2c(cc1Cl)N(CCC(=O)O)C(=O)CO2)c1ccc(Cl)cn1` [Example 1, (R)-3-(6-Chloro-7-(1-(5-chloropyridin-2-yl)propoxy)-3-oxo-2H-benzo[b][1,4]oxazin-4(3H)-yl)propanoic Acid], the pIC50 was ≥ 7.50 and 9.00. `O=C(O)CCN1C(=O)COc2cc(OCc3ccccn3)c(Cl)cc21` [Example 9, 3-[6-chloro-3-oxo-7-(pyridin-2-ylmethoxy)-3,4-dihydro-2H-1,4-benzoxazin-4-yl]propanoic acid]: the negative-log IC50 (pIC50) is no less than 7.50.
